Converted amounts (≈) assume the structure as drawn. Read-outs that look alike come from different tables or passages of the source. *1 amine or outer side, *2 acyl side, *3 side chain or, on linkers, in order; H or OH if unused. Where a SMILES comes first, the peptide text is derived from it. Bridges are numbered along the chain shown (N, C = ends). [ ]: non-standard residue; d: D form. The star is where a group is joined. ξ: configuration not given here. Orn(4R-OH,5R-OH) = O=C([C@H](C[C@@H](O)[C@@H](O)N[*:3])N[*:1])[*:2]; hTyr(3S-OH,4S-OH) = N[C@H](C(=O)O)[C@H](O)[C@@H](O)c1ccc(O)cc1; ξOrn(4,5-diOH) = O=C(C(CC(O)C(O)N[*:3])N[*:1])[*:2]; ξhTyr(βξ-OH,γξ-OH) = NC(C(=O)O)C(O)C(O)c1ccc(O)cc1; Pro(3S-OH,4S-Me) = C[C@H]1CN[C@H](C(=O)O)[C@H]1O; Benzoyl(4-octyloxy) = CCCCCCCCOc1ccc(C(=O)*)cc1; ξPro(3ξ-OH,4ξ-Me) = CC1CNC(C(=O)O)C1O; Palmitoyl = CCCCCCCCCCCCCCCC(=O)*; Hyp = O=C(O)[CH]1C[CH](O)CN1
Key:
[1] = tested on: S. cerevisiae YFK0931-07B; assay: MIC assay; type: cell-based; settings: Saccharomyces cerevisiae, YFK093107B, 42 h
Procedure: (§1) The sensitivities of pcr1(fks2-1) fks1-1 and pcr1(fks2-1) FKS1 strains to L-733,560, L-636,947 (Aculeacin), and L-687,781 (Dihydropapulocandin) were determined in MIC assays. Briefly, strains were grown to stationary phase in 5.0 ml of liquid YPAD medium. MY2256 precultures were grown in liquid YPAD10Ca. MIC assays were performed in flat well microtiter plates in triplicate. Each well of the microtiter plate was filled with 100 mcL of YPAD medium. To the first well, 100 mcL of a 4× solution of drug in YPAD medium was added. To serve as a control, a stock solution of […] of YPAD was made. 100 mcL of this solution was added to the initial well for strains grown in the presence of solvent but the absence of drug. Two-fold serial dilutions of the drug were performed down the plate.
(§2) Cultures were diluted to 5×10^5 cells/ml in YPAD (1 OD660 =3.3×10^7 cells/ml). 100 mcL of diluted culture was added to each well, resuspended, and incubated at 28° C. After 42 hours, cultures were resuspended and cells densities measured in an SLT Laboratories 340 ATTC microtiter plate reader.

S. cerevisiae MY2256 = assay: MIC assay; type: cell-based; settings: Saccharomyces cerevisiae, MY2256, 42 h
Procedure: as §1, §2

S. cerevisiae W303-1A = assay: secondary screen, zone size on agar; type: cell-based, Saccharomyces cerevisiae; settings: 20 ng FK506, 10 mcg CsA, 10 mcg L733,560, 20 mcg aculeacin, 20 mcg papulacandin
Procedure: (§3) For positively identifying glucan synthase inhibitors, screening with strain R560-1C and its parent W303-1A was instituted in a manner identical to that described for calcineurin inhibitors. Complete loss of a zone, or marked reduction in size, on R560-1C versus W303-1A indicates a glucan synthase inhibitor. No zones are seen with calcineurin inhibitors using this pair of strains.
(§4) Each strain is grown at 28°-30° C. in YPAD/10 mM CaCl2 medium with shaking at 220 rpm (to mid or late log phase). The cultures are diluted 1:10 with water, and the OD values of the dilutions are measured at 600 nm (against a blank of YPAD/10 mM CaCl2 similarly diluted 1:10 in water). The OD value is multiplied by 10 to estimate the OD of the culture. Portions (100 ml) of YPAD/10 mM CaCl2 medium containing 1.5% agar, equilibrated at 45° C. in a water bath, are seeded with culture such that the final cell density in the agar would have an OD value of 0.015 (i.e., 3×10^6 cfu/ml; a sample calculation is provided below). The seeded agar is poured into 500 cm^2 Nunc plates. Once the agar plates have solidified, 10 mcL aliquots of samples containing test compounds, such as fermentation extracts, are dissolved in water, 100% methanol or ethanol, or up to 50% DMSO and are placed on each member of the two-plate set in 11 by 8 arrays.
(§5) The plates are incubated for 48 h at 28°-30° C. Diameters of the zones are read to the outermost edge and recorded in mm. The clarity of the zone is reported as clear (no designation), hazy (h), or very hazy (vh). Very hazy zones are best seen by viewing the plate under an elevated light placed between the assay dish and a dark wall.

S. cerevisiae R560-1C = assay: secondary screen, zone size on agar; type: cell-based, Saccharomyces cerevisiae; settings: 20 ng FK506, 10 mcg CsA, 10 mcg L733,560, 20 mcg aculeacin, 20 mcg papulacandin
Procedure: as §3, §4, §5

[2] = tested on: S. cerevisiae haploid strain with the insertion-deletion allele (fks1-5::HIS3 / fks1-6::HIS3); assay: phenotype of haploid strain with FKS1 insertion-deletion allele; type: cell-based, Saccharomyces cerevisiae
Excerpt: An insertion-deletion allele of the fks1-1 complementing DNA was created in the following manner. The 8.8-kb SphI-PstI fragment of pFF133 was inserted between the SphI and PstI sites of the polylinker of the E. coli vector pGEM-5Zf(+) (Promega, Madison, Wis.) giving plasmid pFF174. The 1.3-kb BamHI-XhoI HIS3 fragment from plasmid pJJ215 (J. S. Jones and L. Prakash, Yeast, 6:363-366 (1990)) was inserted by blunt-end ligation (see Current Protocols, p. 3.5.10) between the two KpnI sites of plasmid pFF174 giving plasmids pFF186 (sense orientation) and pFF187 (antisense orientation). The 6.6-kb insertion-deletion fragments were excised by digestion with SstI+SphI and purified by agarose gel electrophoresis. The insertion-deletion mutation was created by one-step gene replacement (see R. Rothstein, GYG, pp. 281-301). This disruption was confirmed by Southern blot hybridization analysis of genomic DNA digested with PstI and probed with the 8.8-kb SphI-PstI fragment from plasmid pFF174. The undisrupted parent gives a single 9.8-kb genomic fragment which hybridizes with the probe. A disruption mutant in which HIS3 is inserted in the sense orientation, for example YFF2409, gives 3.9- and 3.7-kb fragments, while an antisense disruption mutant, for example YFF2411, gives 4.9- and 2.7-kb fragments. […]

[3] = tested on: S. cerevisiae YFK798 (fks1-1 + CN); assay: primary screen, zone size on agar (calcineurin counter screen); type: cell-based, Saccharomyces cerevisiae; settings: 20 ng FK506, 10 mcg CsA, 10 mcg L733,560, 20 mcg aculeacin, 20 mcg papulacandin, 48 h
Procedure: Counter screening strains were devised for identifying calcineurin inhibitors. Overexpression of yeast calcineurin in the fks1-1 mutant (strain YFK798) constitutes the most general of these. […] Glucan synthase inhibitors show neither effect and thus can be distinguished from calcineurin inhibitors.
as §4, §5

[4] = tested on: S. cerevisiae YFK532-7C (fks1-1); assay: primary screen, zone size on agar; type: cell-based, Saccharomyces cerevisiae; settings: 20 ng FK506, 10 mcg CsA, 10 mcg L733,560, 20 mcg aculeacin, 20 mcg papulacandin, 48 h
Procedure: as §4, §5

[5] = tested on: S. cerevisiae YFK007 (wild type); assay: primary screen, zone size on agar; type: cell-based, Saccharomyces cerevisiae; settings: 20 ng FK506, 10 mcg CsA, 10 mcg L733,560, 20 mcg aculeacin, 20 mcg papulacandin, 48 h
Procedure: as §4, §5

[6] = tested on: S. cerevisiae FKS1 pcr1 spores; assay: drug phenotype of segregants from tetrad analysis; type: cell-based, Saccharomyces cerevisiae
Excerpt: YFK0996-11B (MATa fks1-1 pcr1) was also crossed to YFK0005 (MATalpha FKS1 PCR1). In this cross, the pcr1 and fks1-1 mutations segregate independently. In the 16 four-spore and 20 three-spore tetrads, the segregation pattern of 1 Parental Ditype: 1 Non Parental Ditype : 4 Tetratype tetrads is indicative of two unlinked genes. […] Strains MY2257 (also known as YFK1088-23B, MATa FKS1 +pcr1), MY2258 (also known as YFK1088-16D, MATalpha FKS1+pcr1), and YFK1088-02D (MATa FKS1 +pcr1) were segregants from this cross. As shown in the table below, these segregants contain the pcr1 mutation in a wild-type FKS1 background and lack plasmid pDL1 present in the original mutant.

[7] = tested on: S. cerevisiae YFK532-7C (fks1-1) versus YFK007; assay: sensitivity of fks1-1 mutant relative to FKS1 wild-type strain; type: cell-based, Saccharomyces cerevisiae; settings: calcineurin inhibitors
[8] = tested on: S. cerevisiae fks1-1 pcr1 (fks2-1): MY2256, YFK0996-11B, MY2259, MY2260; assay: MIC assay; type: cell-based, Saccharomyces cerevisiae; settings: less than 10% growth, 42 hours
Procedure: as §1
as §2, with “reader. The MICs concentrations presented in the table below represent the concentrations of drug that result in less than 10% growth of the strain grown in the absence of drug.” for “reader.”

[9] = tested on: S. cerevisiae wild type YFK0005; assay: MIC assay; type: cell-based, Saccharomyces cerevisiae; settings: less than 10% growth of no-drug control, 42 hours, 28° C.
Procedure: as §1
as §2, with “reader. The MICs concentrations presented in the table below represent the concentrations of drug that result in less than 10% growth of the strain grown in the absence of drug.” for “reader.”

[10] = tested on: S. cerevisiae fks1-1 PCR1 YFK0688-14B; assay: MIC assay; type: cell-based, Saccharomyces cerevisiae; settings: less than 10% growth of no-drug control, 42 hours, 28° C.
Procedure: as §1
as §2, with “reader. The MICs concentrations presented in the table below represent the concentrations of drug that result in less than 10% growth of the strain grown in the absence of drug.” for “reader.”

[11] = tested on: S. cerevisiae FKS1 pcr1 (fks2-1): MY2257, MY2258; assay: MIC assay; type: cell-based, Saccharomyces cerevisiae; settings: less than 10% growth, 42 hours
Procedure: as §1
as §2, with “reader. The MICs concentrations presented in the table below represent the concentrations of drug that result in less than 10% growth of the strain grown in the absence of drug.” for “reader.”

[12] = tested on: S. cerevisiae R560-1 / R560-1C (fks1-2); assay: liquid MIC assay of resistant clone; type: cell-based, Saccharomyces cerevisiae
Procedure: Strain W303-1A was transformed by the spheroplast method (MYG) with yeast genomic libraries obtained from D. Botstein (1982. Cell, 28:145-154). Transformants selected on uracil dropout medium were pooled and stored at -80° C. in 20% glycerol. After determining the titer (colony forming units(CFU)/ml), aliquots of the stocks were spread at .congruent.5×10^3 CFU per plate onto uracil dropout medium containing the semisynthetic echinocandin L-733,560 at 0.5 mcg/ml or 1.25 mcg/ml. This concentration of L-733,560 is sufficient to select for resistant clones. Twenty-seven drug resistant colonies were isolated. […] Briefly, L-733,560 was serially diluted across the wells of a sterile microtiter plate such that the concentration in each row ranged from 16 to 0.03 mcg/ml in 2-fold increments after an equal volume of a cell suspension in liquid uracil dropout medium was added. After 24 h at 30° C., plates were read in a spectrophotometer at a wavelength of 600 nm, and the percent of control growth in each well (relative to a no-drug control well) was calculated. […]
Because this strain was isolated as a transfornant from the genomic library, it was expected that resistance would be due to the gene residing on the plasmid contained in R560-1. […] R560-1C was mated to the wild type strain W303-1B, sporulated, dissected, and the sensitivity to L-733,560 quantitated by liquid MIC assay. […]

Row | Structure (SMILES) | MIC ([1]; YFK0931-07B, read-out: MIC) | MIC (S. cerevisiae MY2256) | Secondary Screen Zone size (mm) (S. cerevisiae W303-1A) | Secondary Screen Zone size (mm) (S. cerevisiae R560-1C) | Primary Screen Zone size (mm) [3] | Primary Screen Zone size (mm) [4] | Primary Screen Zone size (mm) [5] | drug resistance phenotype of spores [6] | other results
1 | C=CC[C@@H]1/C=C(\C)C[C@H](C)C[C@H](OC)[C@H]2O[C@@](O)(C(=O)C(=O)N3CCCC[C@H]3C(=O)O[C@H](/C(C)=C/[C@@H]3CC[C@@H](O)[C@H](OC)C3)[C@H](C)[C@@H](O)CC1=O)[C@H](C)C[C@@H]2OC [FK506] | 0.03 µg/mL (≈ 0.0373 µM) | 0.06 µg/mL (≈ 0.0746 µM) | none | none | 13 mm | 15-17 mm | none | resistant | drug sensitivity phenotype [2]: hypersensitive; sensitivity of YFK532-7C relative to YFK007 [7]: at least a thousand fold more sensitive
2 | CCC1C=C(C)CC(C)CC(OC)C2OC(O)(C(=O)C(=O)N3CCCCC3C(=O)OC(C(C)=CC3CCC(O)C(OC)C3)C(C)C(O)CC1=O)C(C)CC2OC (stereo not shown) [FK520] | – | 0.06 µg/mL (≈ 0.0758 µM) | – | – | – | – | – | resistant | MIC [1]: 0.06 µg/mL (≈ 0.0758 µM)
3 | CCCCCCCCCCCCCCCC(=O)NC1CC(O)C(O)NC(=O)C2C(O)C(C)CN2C(=O)C(C(C)O)NC(=O)C(C(O)C(O)c2ccc(O)cc2)NC(=O)C2CC(O)CN2C(=O)C(C(C)O)NC1=O [L-636,947, aculeacin] (Palmitoyl-[ξOrn(4,5-diOH)]T[Hyp][ξhTyr(βξ-OH,γξ-OH)]T[ξPro(3ξ-OH,4ξ-Me)]; lactam 1-C; configuration not given here) | – | – | 18-22 mm | 17-20 mm | 27-30 mm | 27-30 mm | 22-24 mm | – | MIC [8]: > 40 µg/mL; MIC [9]: 1 µg/mL (≈ 0.965 µM); MIC [10]: 0.5 µg/mL (≈ 0.483 µM); MIC [11]: > 40 µg/mL
4 | CO[C@H]1C[C@@H]2CC[C@@H](C)[C@@](O)(O2)C(=O)C(=O)N2CCCC[C@H]2C(=O)O[C@H]([C@H](C)C[C@@H]2CC[C@@H](O)[C@H](OC)C2)CC(=O)[C@H](C)/C=C(\C)[C@@H](O)[C@@H](OC)C(=O)[C@H](C)C[C@H](C)/C=C/C=C/C=C/1C [Rapamycin, rapamycin] | 0.007 µg/mL (≈ 0.00766 µM) | 0.007 µg/mL (≈ 0.00766 µM) | – | – | – | – | – | – | –
5 | CCCCCCCCOc1ccc(C(=O)N[C@H]2C[C@@H](O)[C@@H](O)NC(=O)[C@@H]3[C@@H](O)[C@@H](C)CN3C(=O)[C@H]([C@@H](C)O)NC(=O)[C@H]([C@H](O)[C@@H](O)c3ccc(O)cc3)NC(=O)[C@@H]3C[C@@H](O)CN3C(=O)[C@H]([C@@H](C)O)NC2=O)cc1 [L-646,991, cilofungin] ({Benzoyl(4-octyloxy)}-[Orn(4R-OH,5R-OH)]T[Hyp][hTyr(3S-OH,4S-OH)]T[Pro(3S-OH,4S-Me)]; lactam 1-C) | – | – | – | – | – | – | – | – | resistance phenotype in liquid MIC assay [12]: resistance phenotype

Source: patent publication US5821353A, “DNA encoding 1,3 beta-D glucan synthase subunits” (Merck & Co., Inc., priority 1996, dated 1998)
